Measurements: US20170258943A1, “Using Heavy Water as a Contrast Agent for Hydrogen Magnetic Resonance Imaging” (National Tsing Hua University, priority 2014, published 2017)

Tests used:
[1] = Dynamic H MRI of rat brain after intravenous injection of contrast agent; type: in vivo, Sprague-Dawley rats; conditions: whole brain ROI, 1.5 mL D2O into tail vein (about 0.6% of body weight), 4.7 T
Method: Please refer to FIG. 2A and FIG. 2B, which are views showing consecutive MRI images and a curve of signal change. As shown in the figures, 6 normal adult Sprague-Dawley rats (˜200-310 g) are used. Each rat is anesthetized with 1.5% isoflurane/air via a nose cone with respiratory monitoring. Tail vein catheterization is performed with a 0.8-m long polyethylene tube connected to a 23-gaude needle, where a dead volume in a catheter is about 0.2 ml. On operating, 1.5 mL of D2O (99.8%, Cambridge Isotope, Woburn, Mass.) is manually injected into tail vein. After injecting, the catheter is flushed with 0.5 mL 0.9% NaCl solution. For comparison, an additional 0.2 mL Gd-DTPA (Magnevist) is manually injected into tail vein while D2O scanning is completed after 10 min. After injection, the catheter is flushed with 0.5 mL 0.9% NaCl solution. In vivo brain imaging is performed in prone position. All images are acquired on a 4.7 animal MRI scanner (Bruker Biospec 47/40). The parameters for the dynamic images are as follow: TR/TE/θ=1000 ms/30 ms/90 degree, FOV=2.9 cm, matrix size=128×128, and slice thickness=1 mm. Averaged signals from whole brain are portrayed as a signal-intensity curve. For comparison, the signal-intensity curve is transferred into a percentage change curve according to the following formula: Therein, S(t) is a signal at time t and S0 is a signal before using the contrast agent. […]

[2] = T1 and T2 relaxation rates of H in D2O concentration phantom; type: physicochemical; conditions: FIG. 1A
Method: The R1 and R2 in the vertical axis are the relaxation rates of T1 and T2 relaxation, respectively.
In an experimental phantom with D2O concentration as c, respective concentrations of H2O, HDO, and D2O are (1-c)^2, 2c(1-c), and c^2, where a part of c of H is replaced by D. Population ratio of H coupled H and D coupled H is calculated as (1-c):c. The observed T1 and T2 relaxation rates are the population weighted sums of all H. Since the D coupled H has slower relaxation rates than H coupled H, we observe linear relations of R1 and R2 as changing the D2O concentration c in FIG. 1A and FIG. 1B.

[3] = amount of injected D2O less than 20% of body weight; cited from earlier work
[4] = patients having kidney diseases; cited from earlier work

T1 relaxation rate (R1) of H versus D2O concentration [2] | SMILES | signal change [1] [%] | toxicity to animals [3] | nephrogenic systemic fibrosis (NSF) [4]
linearly decreased | [2H]O[2H] [D2O, deuterium oxide] | 10 | not toxic | –
– | O=C([O-])CN(CCN(CC(=O)[O-])CC(=O)O)CCN(CC(=O)[O-])CC(=O)O.[Gd+3] [Gd-DTPA] | – | – | possible to cause nephrogenic systemic fibrosis (NSF)
